Legend:
Type in all cases: cell-based, human
IL-8 = experiment: Retinol-induced IL-8 release in HaCaT cells (ELISA); conditions: 10 μM all-trans retinol, 48 hours
Experimental: (§1) Referring to FIG. 1, immortalized human keratinocytes HaCaT cells were cultured in 96-well plates and treated with 10 μM of all-trans retinol (Sigma-Aldrich, St. Louis, Mo.) and c-PDRN® obtained from (PharmaResearch, Seongnam-si, Gyeonggi-do, Korea) at the indicated concentrations. […] The levels of secreted cytokine were normalized against a standard dose-response curve. c-PDRN is a hydrolyzed DNA fragment mixture extracted from the testes of adult salmon (Oncorhynchus keta, Salmonidae) The inhibitory effects of c-PDRN were evaluated on retinol-induced secretion of MCP-1 or IL-8 in cultured human keratinocytes, HaCaT cells by enzyme-linked immunosorbent assay (ELISA) to study IL-8, MCP-1 signaling pathway. The cultured HaCaT cells were treated with 10 μM all-trans retinol prior to c-PDRN treatment at the indicated concentrations. After incubation for 48 hours, the levels of secreted IL-8 or MCP-1 were measured and normalized against a standard IL-8 or MCP-1 dose-response curve. Data were shown as the means of three individual experiments with five wells per group. All-trans retinol induced increases in IL-8 and MCP-1 secretion by 8-fold and 1.4-fold, respectively. Efficacy range was c-PDRN 10 ppm ˜100 ppm or 0.001%-0.01%.

MCP-1 = experiment: Retinol-induced MCP-1 release in HaCaT cells (ELISA); conditions: 10 μM all-trans retinol, 48 hours
Experimental: as §1

p38 = experiment: Expression and phosphorylation of p38 in HaCaT cells (Western blot); conditions: 10 μM all-trans retinol, 48 hours, FIG. 3
Experimental: Referring to FIG. 1, altered signaling pathways in the retinol-treated HaCaT cells were investigated. The HaCaT cells were harvested 48 hours after treatment of retinol and c-PDRN at the indicated concentrations, and expression and phosphorylation levels of inflammation-related signaling mediator, p38 were determined using Western blot. Antibodies against p38 or phosphorylated p38 (p-p38) were purchased from Cell Signaling Technology (Danvers, Mass.). The expression and phosphorylation levels of inflammation-related signaling mediator, p38 were evaluated after treatment with 10 μM all-trans retinol and c-PDRN at the indicated concentrations using Western blot to study p38 signaling pathway.

Q: Which “increase in IL-8 secretion” value (IL-8) does the source give for `CC1=C(/C=C/C(C)=C/C=C/C(C)=C/CO)C(C)(C)CCC1` [All-trans retinol, all-trans retinol] here?
A: The value was 8 fold.

Q: What about the “increase in MCP-1 secretion” value (MCP-1) of the same molecule?
A: Its value is 1.4 fold.

Q: And the “phosphorylation of p38 protein induced” value (p38)?
A: Its value is 1.6 fold.

— patent US20230140298A1, “TOPICAL COMPOSITION COMPRISING RETINOL AND PDRN AND USE OF SAME” (DR. J SKINCLINIC, INC., priority 2021, published 2023)
